Experimental data as given in patent publication US20260042764A1, “COMPOSITIONS AND METHODS FOR INHIBITION OF KRAS” (TheRas, Inc., priority 2022, published 2026).

Assays:
[1] = molecular target: T1, Avi-KRAS G12R (1-169) GppNHp/RAF1 RBD-3xFLAG (52-151) (Homo sapiens, UniProt P01116, G12R); test: Raf1-KRAS G12R-GppNHP disruption HTRF assay (Biological Example 1); format: binding; conditions: KRAS G12R, GppNHp-loaded; Table 11
T1 construct: Avi-KRAS G12R (1-169)
Protocol: (§1) A protein:protein interaction (PPI) Homogeneous Time Resolved Fluorescence (HTRF) assay was used to determine the effectiveness of compounds of the present disclosure in disrupting KRAS protein and effector RAF1 binding.
(§2) The assay buffer included: 50 mM Tris pH 7.5, 100 mM NaCl, 5 mM MgCl2, 0.1% BSA, 0.01% Tween, and 10% DMSO. The bead buffer included: 50 mM Tris pH 7.5, and 0.01% Tween 20. Assay volume of 20 μL was used in a 384 well plate-low volume format.
(§3) The HTRF assay employed the following protocol:
(§4) Protein mix was prepared in assay buffer, and dispensed on plates, 10 μL per well, then incubated for 1 h at room temperature, with 700 rpm shaking, Reagents mix was prepared and dispensed on plates, 10 μL per well, then incubated for 1 h at room temperature, with 700 rpm shaking.
(§5) Data was reported as percentage of activity, with DMSO as 100%. Data was plotted and analyzed using Prism 8.

[2] = molecular target: T2, Avi-KRAS G12D (1-169) GppNHp/RAF1 RBD-3xFLAG (52-151) (Homo sapiens, UniProt P01116, G12D); test: Raf1-KRAS G12D-GppNHP disruption HTRF assay (Biological Example 1); format: binding; conditions: KRAS G12D, GppNHp-loaded; Table 11
T2 construct: Avi-KRAS G12D (1-169)
Protocol: as §1, §2, §3, §4, §5

GP2d cells (KRAS G12D) = test: Cell-based pERK HTRF assay in GP2d cell (Biological Example 2); conditions: GP2d (KRAS G12D) cells, pERK HTRF
Protocol: A pERK assay (Perkin Elmer) was used to determine the effectiveness of compounds in disrupting KRAS G12D protein/effector signaling in cells.
On Day 1, cells (GP2d) were seeded into 96-well plates at 3×10^4 cells/well in 80 μL complete growth media (DMEM, 10% FBS).
On Day 2, cells were treated with compounds at 0.25% DMSO. The source plate was created with compounds diluted in media at 5-fold the final assay concentration. The compounds were run in a 9-point concentration curve starting at 1 μM or in a 9-point concentration curve starting at 100 nM, with a half-log dilution between concentrations. Twenty μL was transferred onto the cell plates (final volume in wells was 100 μL). Plates were harvested after 60 min incubation by aspirating media and adding kit-supplied 1x supplemented lysis buffer to all wells (50 μL per well). Plates were then placed on a plate shaker and incubated at 850 rpm for an additional 30 min.
Antibody mixture solution was prepared by diluting aliquoted d2 and Eu Cryptate antibodies 1:20 in kit supplied detection buffer, and mixing the diluted antibodies solutions (1:1 v:v).
Samples were homogenized by pipetting up and down and then transferred (16 μL of cell lysates) from the 96-well cell culture plate to two wells of the HTRF 384-well detection plate containing the antibody solution. Plates were centrifuged (524 g for 1 min) and allowed to incubate between 4 and 24 h at room temperature. Maximum signal is reached after 4 h incubation time and remains stable over a period of 24 hours. Therefore, readings can be made between 4 and 24 h of incubation. Plates were centrifuged again (524 g for Imin), then analyzed on the EnVision plate reader using the following settings: Excitation 320 nm, Bandwidth 75 nm; Emission 615 nm, Bandwidth 85 nm; Gain 100%; Flashes 100; Lag 60 μs.

[3] = molecular target: T3, Avi-KRAS WT (1-169) GppNHp/RAF1 RBD-3xFLAG (52-151) (Homo sapiens, UniProt P01116); test: Raf1-KRAS WT-GppNHP disruption HTRF assay (Biological Example 1); format: binding; conditions: KRAS WT, GppNHp-loaded; Table 11
T3 construct: Avi-KRAS WT (1-169)
Protocol: as §1, §2, §3, §4, §5

[4] = molecular target: T4, Avi-KRAS G12V (1-169) GppNHp/RAF1 RBD-3xFLAG (52-151) (Homo sapiens, UniProt P01116, G12V); test: Raf1-KRAS G12V-GppNHP disruption HTRF assay (Biological Example 1); format: binding; conditions: KRAS G12V, GppNHp-loaded; Table 11
T4 construct: Avi-KRAS G12V (1-169)
Protocol: as §1, §2, §3, §4, §5

T2 sequence (P01116 1-169 isoform P01116-2 G12D): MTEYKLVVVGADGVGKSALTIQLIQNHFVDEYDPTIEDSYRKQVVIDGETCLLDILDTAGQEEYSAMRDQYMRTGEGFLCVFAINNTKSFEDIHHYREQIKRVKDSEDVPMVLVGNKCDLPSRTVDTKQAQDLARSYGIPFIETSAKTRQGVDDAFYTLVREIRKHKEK
T1 sequence (P01116 1-169 isoform P01116-2 G12R): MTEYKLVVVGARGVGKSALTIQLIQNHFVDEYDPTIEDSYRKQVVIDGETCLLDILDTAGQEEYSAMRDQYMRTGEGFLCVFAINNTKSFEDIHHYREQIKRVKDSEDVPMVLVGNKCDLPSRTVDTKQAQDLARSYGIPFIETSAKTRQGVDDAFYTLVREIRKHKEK
T4 sequence (P01116 1-169 isoform P01116-2 G12V): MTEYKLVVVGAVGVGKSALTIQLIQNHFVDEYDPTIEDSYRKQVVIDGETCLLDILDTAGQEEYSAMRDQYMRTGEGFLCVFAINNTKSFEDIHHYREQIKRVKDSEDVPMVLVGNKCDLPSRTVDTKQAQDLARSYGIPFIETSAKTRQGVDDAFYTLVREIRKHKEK
T3 sequence (P01116 1-169 isoform P01116-2): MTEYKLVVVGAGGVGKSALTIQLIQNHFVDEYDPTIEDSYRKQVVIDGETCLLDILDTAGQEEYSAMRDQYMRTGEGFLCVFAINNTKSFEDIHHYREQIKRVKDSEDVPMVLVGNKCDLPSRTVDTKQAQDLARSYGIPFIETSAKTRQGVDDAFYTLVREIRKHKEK

SMILES | IC50 [1] [nM] | IC50 [2] [nM] | IC50 (GP2d cells (KRAS G12D); GP2d) [nM] | IC50 [3] [nM] | IC50 [4] [nM] | IC50 (GP2d cells (KRAS G12D)) [nM]
CN(c1nc(OC[C@@]23CCCN2C[C@H](F)C3)nc2c(F)c(-c3ccc(F)c4sc(N)c(C#N)c34)c(C(F)(F)F)cc12)[C@H]1C[C@@H](O)C1 (single isomer, unassigned) [Compound 20] | 1000 to 10000 | 1000 to 10000 | 100 to 1000 | 1000 to 10000 | 1000 to 10000 | –
CN(c1nc(OC[C@@]23CCCN2C[C@H](F)C3)nc2c(F)c(-c3ccc(F)c4sc(N)c(C#N)c34)c(C(F)(F)F)cc12)[C@H]1CCC[C@@H]1CO [Compound 86] | 100 to 1000 | 100 to 1000 | < 100 | 1000 to 10000 | 1000 to 10000 | –
CC(=O)N1CCC(N(C)c2nc(OCC34CCCN3CC(F)C4)nc3c(F)c(-c4ccc(F)c5scc(C#N)c45)c(C(F)(F)F)cc23)C1 (centres unmarked) [Compound 105] | > 10000 | > 10000 | – | > 10000 | > 10000 | > 1000
CCN(c1nc(OC[C@@]23CCCN2C[C@H](F)C3)nc2c(F)c(-c3ccc(F)c4sc(N)c(C#N)c34)c(C(F)(F)F)cc12)[C@@H]1CCN(C(C)=O)[C@@H]1C [Compound 189] | 100 to 1000 | 100 to 1000 | < 100 | 100 to 1000 | 100 to 1000 | –
CN(c1nc(OC[C@@]23CCCN2C[C@H](F)C3)nc2c(F)c(-c3ccc(F)c4sc(N)c(C#N)c34)c(C(F)(F)F)cc12)[C@@H]1CCN(S(C)(=O)=O)C1 [Compound 95] | 100 to 1000 | 100 to 1000 | – | 100 to 1000 | 100 to 1000 | < 100
N#Cc1c(N)sc2c(F)ccc(-c3c(C(F)(F)F)cc4c(N5CC6CCC5CO6)nc(OC[C@@]56CCCN5C[C@H](F)C6)nc4c3F)c12 (some centres unmarked) [Compound 146] | 100 to 1000 | 100 to 1000 | < 100 | 100 to 1000 | 100 to 1000 | –
C[C@@H](O)CN(C)c1nc(OC[C@@]23CCCN2C[C@H](F)C3)nc2c(F)c(-c3ccc(F)c4sc(N)c(C#N)c34)c(C(F)(F)F)cc12 [Compound 71] | 100 to 1000 | < 100 | < 100 | 100 to 1000 | 100 to 1000 | –
CN(c1nc(OC[C@@]23CCCN2C[C@H](F)C3)nc2c(F)c(-c3ccc(F)c4sc(N)c(C#N)c34)ccc12)[C@H]1C[C@@H](O)C1 [Compound 28] | 1000 to 10000 | 100 to 1000 | 100 to 1000 | 100 to 1000 | 1000 to 10000 | –
CC(=O)NC1CN(c2nc(OC[C@@]34CCCN3C[C@H](F)C4)nc3c(F)c(-c4ccc(F)c5sc(N)c(C#N)c45)c(C(F)(F)F)cc23)C1 [Compound 88] | 100 to 1000 | 100 to 1000 | 100 to 1000 | 100 to 1000 | 100 to 1000 | –
N#Cc1c(N)sc2c(F)ccc(-c3c(C(F)(F)F)cc4c(N5C6CCC5COC6)nc(OC[C@@]56CCCN5C[C@H](F)C6)nc4c3F)c12 [Compound 131] | 100 to 1000 | 100 to 1000 | < 100 | 100 to 1000 | 100 to 1000 | –
N#Cc1c(N)sc2c(F)ccc(-c3c(C(F)(F)F)cc4c(N5CC6(COC6)C5)nc(OC[C@@]56CCCN5C[C@H](F)C6)nc4c3F)c12 [Compound 149] | 1000 to 10000 | 100 to 1000 | < 100 | 100 to 1000 | 1000 to 10000 | –
CN(c1nc(OC[C@@]23CCCN2C[C@H](F)C3)nc2c(F)c(-c3ccc(F)c4sc(N)c(C#N)c34)c(C(F)(F)F)cc12)[C@H]1C[C@@H](O)C1 [Compound 18, 2-amino-7-fluoro-4-(8-fluoro-2-(((2R,7aS)-2-fluorotetrahydro-1H-pyrrolizin-7a(5H)-yl)methoxy)-4-(((1s,3R)-3-hydroxycyclobutyl)(methyl)amino)-6-(trifluoromethyl)quinazolin-7-yl)benzo[b]thiophene-3-carbonitrile] | 100 to 1000 | < 100 | < 100 | < 100 | 100 to 1000 | –
N#CC[C@H]1CN(c2nc(OC[C@@]34CCCN3C[C@H](F)C4)nc3c(F)c(-c4ccc(F)c5sc(N)c(C#N)c45)c(C(F)(F)F)cc23)CCO1 [Compound 137] | 100 to 1000 | 100 to 1000 | < 100 | 100 to 1000 | 1000 to 10000 | –
CCN(c1nc(OC[C@@]23CCCN2C[C@H](F)C3)nc2c(F)c(-c3ccc(F)c4sc(N)c(C#N)c34)c(C(F)(F)F)cc12)[C@H]1C[C@@H](O)C1 [Compound 26, 2-amino-4-[4-[ethyl-(3-hydroxycyclobutyl)amino]-8-fluoro-2-[[(2R,8S)-2-fluoro-1,2,3,5,6,7-hexahydropyrrolizin-8-yl]methoxy]-6-(trifluoromethyl)quinazolin-7-yl]-7-fluoro-benzothiophene-3-carbonitrile] | 100 to 1000 | < 100 | < 100 | 100 to 1000 | 100 to 1000 | –

Now from value to compound:

IC50 [1] [nM] | IC50 [2] [nM] | IC50 (GP2d cells (KRAS G12D); GP2d) [nM] | IC50 [3] [nM] | IC50 [4] [nM] | IC50 (GP2d cells (KRAS G12D)) [nM] | SMILES
< 100 | < 100 | < 100 | < 100 | 100 to 1000 | – | CN(c1nc(OC[C@@]23CCCN2C[C@H](F)C3)nc2c(F)c(-c3ccc(F)c4sc(N)c(C#N)c34)c(C(F)(F)F)cc12)[C@@H]1C[C@H](O)[C@@H]1CO [Compound 37]
100 to 1000 | 100 to 1000 | < 100 | 100 to 1000 | 100 to 1000 | – | N#Cc1c(N)sc2c(F)ccc(-c3c(C(F)(F)F)cc4c(N(CCO)C5CC5)nc(OC[C@@]56CCCN5C[C@H](F)C6)nc4c3F)c12 [Compound 171]
100 to 1000 | 100 to 1000 | < 100 | 100 to 1000 | 100 to 1000 | – | CN(c1nc(OC[C@@]23CCCN2C[C@H](F)C3)nc2c(F)c(-c3ccc(F)c4sc(N)c(C#N)c34)c(C(F)(F)F)cc12)[C@@H]1C[C@H](O)[C@H]1CC#N [Compound 182]
100 to 1000 | 100 to 1000 | < 100 | 100 to 1000 | 100 to 1000 | – | N#Cc1c(N)sc2c(F)ccc(-c3c(C(F)(F)F)cc4c(N5CC[C@H](CO)C5)nc(OC[C@@]56CCCN5C[C@H](F)C6)nc4c3F)c12 [Compound 123]
< 100 | < 100 | < 100 | < 100 | < 100 | – | CCN(CCO)c1nc(OC[C@@]23CCCN2C[C@H](F)C3)nc2c(F)c(-c3ccc(F)c4sc(N)c(C#N)c34)c(C(F)(F)F)cc12 [Compound 74]
100 to 1000 | 100 to 1000 | < 100 | 100 to 1000 | 100 to 1000 | – | N#Cc1c(N)sc2c(F)ccc(-c3c(C(F)(F)F)cc4c(N5CCC(CO)CC5)nc(OC[C@@]56CCCN5C[C@H](F)C6)nc4c3F)c12 [Compound 44, 2-amino-7-fluoro-4-(8-fluoro-2-(((2R,7aS)-2-fluorotetrahydro-1H-pyrrolizin-7a(5H)-yl)methoxy)-4-(4-(hydroxymethyl)piperidin-1-yl)-6-(trifluoromethyl)quinazolin-7-yl)benzo[b]thiophene-3-carbonitrile]
100 to 1000 | 100 to 1000 | < 100 | 100 to 1000 | 100 to 1000 | – | CN(c1nc(OC[C@@]23CCCN2C[C@H](F)C3)nc2c(F)c(-c3ccc(F)c4sc(N)c(C#N)c34)c(C(F)(F)F)cc12)[C@H]1C[C@H](O)C1 [Compound 23]
100 to 1000 | 100 to 1000 | < 100 | 100 to 1000 | 100 to 1000 | – | CC(=O)N1CCC(N(C)c2nc(OC[C@@]34CCCN3C[C@H](F)C4)nc3c(F)c(-c4ccc(F)c5sc(N)c(C#N)c45)c(C(F)(F)F)cc23)[C@H]1C (some centres unmarked) [Compound 114]
